Results from ChEMBL document CHEMBL1177682, “Hypoxic selectivity and solubility--investigating the properties of A-ring substituted nitro seco-1,2,9,9a-tetrahydrocyclopropa[c]benz[e]indol-4-ones (nitroCBIs) as hypoxia-activated prodrugs for antitumor therapy” (Bioorg Med Chem, 2010).
Active and inactive are the calls of the source. The calls are words filed in the database; no cut-off is given here.

Experiments:
[1] = tested on: SK-OV-3; assay: Cytotoxicity against human SKOV3 cells under aerobic condition after 5 days by SRB assay; type: functional, cell-based; details: SK-OV-3, 120 h
[2] = tested on: HT-29; assay: Cytotoxicity against human HT-29 cells under hypoxic condition after 5 days by SRB assay; type: functional, cell-based; details: HT-29, 120 h
[3] = tested on: HT-29; assay: Cytotoxicity against human HT-29 cells under aerobic condition after 5 days by SRB assay; type: functional, cell-based; details: HT-29, 120 h
[4] = tested on: SK-OV-3; assay: Cytotoxicity against human SKOV3 cells under hypoxic condition after 5 days by SRB assay; type: functional, cell-based; details: SK-OV-3, 120 h
[5] = tested on: SK-OV-3; assay: Hypoxic cytotoxicity ratio IC50 for human SKOV3 cells under aerobic condition to IC50 for human HT-29 cells under hypoxic condition; type: functional
[6] = tested on: HT-29; assay: Hypoxic cytotoxicity ratio IC50 for human HT-29 cells under aerobic condition to IC50 for human HT-29 cells under hypoxic condition; type: functional
[7] = AUC (0 to 180 mins) in CD1 mouse at 23.7 umol/kg, iv; type: ADME, organism-based; design: time < 3 hr, dose 23.7 umol/kg, route intravenous; details: plasma
[8] = Plasma concentration in CD1 mouse at 23.7 umol/kg, iv after 15 mins; type: ADME, organism-based
[9] = tested on: HT-29; assay: Antitumor activity against human HT-29 cells xenografted in CD1 mouse after 18 hrs; type: functional, cell-based
[10] = Toxicity against human HT-29 xenografted ip dosed CD1 mouse assessed as maximum tolerated dose; type: organism-based; details: in vivo, read-out: Activity

| SMILES | IC50 [1] [nM] | IC50 [2] [nM] | IC50 [3] [nM] | IC50 [4] [nM] | Ratio IC50 [5] | Ratio IC50 [6] | AUC(0-t) at 3 h [7] [µM·h] | concentration at […] [8] [nM] | Activity [9] | MTD [10] [µmol/kg] |
| --- | --- | --- | --- | --- | --- | --- | --- | --- | --- | --- |
| CN(C)CCOc1ccc2[nH]c(C(=O)N3CC(CCl)c4c3cc([N+](=O)[O-])c3cc(S(N)(=O)=O)ccc43)cc2c1 (stereo not given) | 6900 | 18 | 4600 | 28 |  |  |  |  |  |  |
| CNS(=O)(=O)c1ccc2c3c(cc([N+](=O)[O-])c2c1)N(C(=O)c1cc2cc(OCCN(C)C)ccc2[nH]1)CC3CCl (stereo not given) | 2600 | 130 | 2700 | 120 | 21 | 24 |  |  |  |  |
| CN(C)CCOc1ccc2[nH]c(C(=O)N3CC(CCl)c4c3cc([N+](=O)[O-])c3cc(N)ccc43)cc2c1 (stereo not given) | 2500 | 760 | 1800 | 1300 | 2 | 2.4 |  |  |  |  |
| CNS(=O)(=O)c1ccc2c3c(cc(N)c2c1)N(C(=O)c1cc2cc(OCCN(C)C)ccc2[nH]1)CC3CCl (stereo not given) | 20 | 20 | 24 | 11 |  |  |  |  |  |  |
| COc1cc2cc(C(=O)N3CC(CCl)c4c3cc([N+](=O)[O-])c3cc(C(=O)NCCN(C)C)ccc43)[nH]c2c(OC)c1OC (stereo not given) | 2000 | 300 | 1500 | 140 | 24 | 5.9 |  |  |  |  |
| COc1cc2cc(C(=O)N3CC(CCl)c4c3cc([N+](=O)[O-])c3ccc(C(=O)NCCN(C)C)cc43)[nH]c2c(OC)c1OC (stereo not given) | 2500 | 540 | 1300 | 180 | 16 | 2.4 |  |  |  |  |
| CN(C)CCOc1ccc2[nH]c(C(=O)N3CC(CCl)c4c3cc([N+](=O)[O-])c3cc(S(=O)(=O)NO)ccc43)cc2c1 (stereo not given) | 24000 | 150 | 24000 | 450 | 55 | 160 |  |  |  |  |
| CN(C)CCOc1ccc2[nH]c(C(=O)N3CC(CCl)c4c3cc([N+](=O)[O-])c3cc(S(=O)(=O)N(C)C)ccc43)cc2c1 (stereo not given) | 500 | 370 | 1100 | 210 | 2.4 | 3.6 |  |  |  |  |
| CN(C)CCNS(=O)(=O)c1ccc2c3c(cc([N+](=O)[O-])c2c1)N(C(=O)c1cc2cc(OCCN(C)C)ccc2[nH]1)CC3CCl (stereo not given) | 830 | 9 | 730 | 6.6 | 130 | 110 | < 0.03 | < 10 | inactive | 23.7 |
| CN(C)CCOc1ccc2[nH]c(C(=O)N3CC(CCl)c4c3cc([N+](=O)[O-])c3cc(S(=O)(=O)NN)ccc43)cc2c1 (stereo not given) | 33000 | 160 | 31000 | 210 | 160 | 220 |  |  |  |  |
